Experimental data as given in ChEMBL document CHEMBL4507310, “Data for DCP probe A-1211212” (2021).

Tests used:
[1] = biological target: L-type Ca2+ channel (dihydropyridine site) (Rattus norvegicus, UniProt P22002+P27732+Q02485); assay: Ca2+ channel (L, dihydropyridine site) Eurofins-Cerep binding assay; type: protein assay; design: incubation time 90 min, incubation temperature RT, ligand concentration 0.1 nM; settings: rat cerebral cortex, probe [3H]nitrendipine (0.1 nM), compound concentration 10 uM, read-out: % Inhibition of Control Specific Binding (Mean n=2)
[2] = biological target: Tyrosine-protein kinase Lck (Homo sapiens) (UniProt P06239); settings: Compound concentration 1000.0 nM
[3] = biological target: Casein kinase I isoform alpha (Homo sapiens) (UniProt P48729); settings: Compound concentration 1000.0 nM
[4] = biological target: Serine/threonine-protein kinase 38 (Homo sapiens) (UniProt Q15208); settings: Compound concentration 1000.0 nM
[5] = biological target: Mitogen-activated protein kinase 13 (Homo sapiens) (UniProt O15264); settings: Compound concentration 1000.0 nM
[6] = biological target: Serine/threonine-protein kinase ULK1 (Homo sapiens) (UniProt O75385); settings: Compound concentration 1000.0 nM
[7] = system: Phosphatidylinositol 4,5-bisphosphate 3-kinase catalytic subunit alpha isoform (Homo sapiens), P42336 [Q546K]; settings: Compound concentration 1000.0 nM
[8] = biological target: Eukaryotic translation initiation factor 2-alpha kinase 1 (Homo sapiens) (UniProt Q9BQI3); settings: Compound concentration 1000.0 nM
[9] = biological target: Cyclin-G-associated kinase (Homo sapiens) (UniProt O14976); settings: Compound concentration 1000.0 nM
[10] = biological target: Serine/threonine-protein kinase PAK 1 (Homo sapiens) (UniProt Q13153); settings: Compound concentration 1000.0 nM
[11] = biological target: Tyrosine-protein kinase ABL1 (Homo sapiens) (UniProt P00519); settings: Compound concentration 1000.0 nM
[12] = biological target: Ribosomal protein S6 kinase alpha-3 (Homo sapiens) (UniProt P51812); settings: Compound concentration 1000.0 nM
[13] = biological target: 1-phosphatidylinositol 3-phosphate 5-kinase (Homo sapiens) (UniProt Q9Y2I7); settings: Compound concentration 1000.0 nM
[14] = biological target: T1, Muscarinic acetylcholine receptor M5 (Homo sapiens) (UniProt P08912); settings: Compound concentration 10.0 uM
T1 sequence (whole entry): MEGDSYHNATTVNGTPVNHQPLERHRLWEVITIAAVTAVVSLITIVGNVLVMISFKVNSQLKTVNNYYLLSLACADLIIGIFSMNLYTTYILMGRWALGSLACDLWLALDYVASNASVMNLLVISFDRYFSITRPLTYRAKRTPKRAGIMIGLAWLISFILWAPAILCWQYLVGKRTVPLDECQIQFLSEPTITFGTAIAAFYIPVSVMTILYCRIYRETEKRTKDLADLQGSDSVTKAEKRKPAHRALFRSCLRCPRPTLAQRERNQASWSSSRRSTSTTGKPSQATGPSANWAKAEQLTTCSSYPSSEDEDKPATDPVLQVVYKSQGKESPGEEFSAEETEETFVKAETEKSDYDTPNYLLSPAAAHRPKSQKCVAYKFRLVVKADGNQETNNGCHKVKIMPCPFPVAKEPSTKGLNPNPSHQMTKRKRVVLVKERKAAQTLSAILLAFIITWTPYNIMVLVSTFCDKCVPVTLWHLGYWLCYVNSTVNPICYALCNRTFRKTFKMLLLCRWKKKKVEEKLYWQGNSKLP

[15] = biological target: Estrogen receptor (Homo sapiens) (UniProt P03372); assay: Estrogen ER alpha (h) Eurofins-Cerep binding assay; design: ligand concentration 0.5 nM; settings: filed as agonist, Compound concentration 10.0 uM
[16] = system: Epidermal growth factor receptor (Homo sapiens), P00533 [G719S]; settings: Compound concentration 1000.0 nM
[17] = biological target: Tyrosine-protein kinase Yes (Homo sapiens) (UniProt P07947); settings: Compound concentration 1000.0 nM
[18] = biological target: Aurora kinase B (Homo sapiens) (UniProt Q96GD4); settings: Compound concentration 1000.0 nM
[19] = biological target: Cyclin-dependent kinase 14 (Homo sapiens) (UniProt O94921); settings: Compound concentration 1000.0 nM
[20] = biological target: Serine/threonine-protein kinase RIO1 (Homo sapiens) (UniProt Q9BRS2); settings: Compound concentration 1000.0 nM
[21] = biological target: Serine/threonine-protein kinase LATS2 (Homo sapiens) (UniProt Q9NRM7); settings: Compound concentration 1000.0 nM
[22] = biological target: Serine/threonine-protein kinase RIO3 (Homo sapiens) (UniProt O14730); settings: Compound concentration 1000.0 nM
[23] = biological target: Serine/threonine-protein kinase PRP4 homolog (Homo sapiens) (UniProt Q13523); settings: Compound concentration 1000.0 nM
[24] = biological target: TGF-beta receptor type-2 (Homo sapiens) (UniProt P37173); settings: Compound concentration 1000.0 nM
[25] = biological target: Ephrin type-B receptor 3 (Homo sapiens) (UniProt P54753); settings: Compound concentration 1000.0 nM
[26] = system: Tyrosine-protein kinase ABL1 (Homo sapiens), P00519 [F317I]; settings: Compound concentration 1000.0 nM
[27] = biological target: Aurora kinase C (Homo sapiens) (UniProt Q9UQB9); settings: Compound concentration 1000.0 nM
[28] = biological target: Non-receptor tyrosine-protein kinase TYK2 (Homo sapiens) (UniProt P29597); settings: Compound concentration 1000.0 nM
[29] = biological target: Serine/threonine-protein kinase Nek1 (Homo sapiens) (UniProt Q96PY6); settings: Compound concentration 1000.0 nM
[30] = biological target: Myosin-IIIa (Homo sapiens) (UniProt Q8NEV4); settings: Compound concentration 1000.0 nM
[31] = biological target: Maternal embryonic leucine zipper kinase (Homo sapiens) (UniProt Q14680); settings: Compound concentration 1000.0 nM
[32] = biological target: Ephrin type-B receptor 1 (Homo sapiens) (UniProt P54762); settings: Compound concentration 1000.0 nM
[33] = biological target: Mitogen-activated protein kinase 15 (Homo sapiens) (UniProt Q8TD08); settings: Compound concentration 1000.0 nM
[34] = biological target: G protein-coupled receptor kinase 3 (Homo sapiens) (UniProt P35626); settings: Compound concentration 1000.0 nM
[35] = biological target: Serine/threonine-protein kinase tousled-like 1 (Homo sapiens) (UniProt Q9UKI8); settings: Compound concentration 1000.0 nM
[36] = biological target: Serine/threonine-protein kinase Nek4 (Homo sapiens) (UniProt P51957); settings: Compound concentration 1000.0 nM
[37] = biological target: Myosin light chain kinase 2, skeletal/cardiac muscle (Homo sapiens) (UniProt Q9H1R3); settings: Compound concentration 1000.0 nM

Chain of Tyrosine-protein kinase ABL1 (Homo sapiens) (P00519 whole entry): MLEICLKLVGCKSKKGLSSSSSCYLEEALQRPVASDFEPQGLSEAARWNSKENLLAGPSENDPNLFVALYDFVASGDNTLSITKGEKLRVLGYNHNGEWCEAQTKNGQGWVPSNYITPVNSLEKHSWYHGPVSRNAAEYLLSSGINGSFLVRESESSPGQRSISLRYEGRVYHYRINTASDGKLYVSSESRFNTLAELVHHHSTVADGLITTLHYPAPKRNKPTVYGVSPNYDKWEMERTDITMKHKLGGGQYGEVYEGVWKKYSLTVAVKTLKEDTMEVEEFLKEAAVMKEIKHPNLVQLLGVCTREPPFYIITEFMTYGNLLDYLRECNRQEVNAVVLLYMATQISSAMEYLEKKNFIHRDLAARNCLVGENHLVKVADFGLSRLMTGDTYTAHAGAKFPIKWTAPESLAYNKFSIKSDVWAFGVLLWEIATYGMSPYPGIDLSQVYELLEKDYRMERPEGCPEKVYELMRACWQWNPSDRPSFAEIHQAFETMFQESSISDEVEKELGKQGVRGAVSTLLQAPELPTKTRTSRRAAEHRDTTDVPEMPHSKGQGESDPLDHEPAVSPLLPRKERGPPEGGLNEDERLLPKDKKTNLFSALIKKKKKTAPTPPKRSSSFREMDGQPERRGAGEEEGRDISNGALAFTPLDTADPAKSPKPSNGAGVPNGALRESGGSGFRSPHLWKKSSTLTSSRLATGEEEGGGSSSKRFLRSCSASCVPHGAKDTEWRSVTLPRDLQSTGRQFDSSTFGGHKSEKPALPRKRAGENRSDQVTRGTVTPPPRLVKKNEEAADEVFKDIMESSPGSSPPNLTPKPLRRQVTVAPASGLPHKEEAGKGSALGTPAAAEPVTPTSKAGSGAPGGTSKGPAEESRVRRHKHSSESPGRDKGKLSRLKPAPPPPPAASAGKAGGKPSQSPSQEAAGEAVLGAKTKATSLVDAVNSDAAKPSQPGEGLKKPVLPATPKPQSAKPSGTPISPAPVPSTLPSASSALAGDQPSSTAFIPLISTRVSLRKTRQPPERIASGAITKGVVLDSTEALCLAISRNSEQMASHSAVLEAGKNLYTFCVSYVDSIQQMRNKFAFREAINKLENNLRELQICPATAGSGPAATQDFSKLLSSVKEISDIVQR
Chain of Cyclin-dependent kinase 14 (Homo sapiens) (O94921 whole entry): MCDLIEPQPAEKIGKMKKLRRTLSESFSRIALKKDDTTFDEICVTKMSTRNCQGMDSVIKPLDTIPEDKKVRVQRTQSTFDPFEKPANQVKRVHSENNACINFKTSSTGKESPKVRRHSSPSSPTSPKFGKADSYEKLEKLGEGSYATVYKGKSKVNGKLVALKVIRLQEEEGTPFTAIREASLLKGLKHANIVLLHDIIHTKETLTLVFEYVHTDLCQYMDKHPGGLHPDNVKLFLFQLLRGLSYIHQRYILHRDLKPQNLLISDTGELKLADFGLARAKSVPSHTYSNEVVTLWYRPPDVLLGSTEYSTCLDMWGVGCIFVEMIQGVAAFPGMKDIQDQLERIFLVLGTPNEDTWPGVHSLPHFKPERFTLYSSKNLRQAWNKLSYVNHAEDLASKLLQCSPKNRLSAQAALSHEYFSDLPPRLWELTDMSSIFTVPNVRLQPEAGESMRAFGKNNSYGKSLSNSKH
Chain of Serine/threonine-protein kinase PRP4 homolog (Homo sapiens) (Q13523 whole entry): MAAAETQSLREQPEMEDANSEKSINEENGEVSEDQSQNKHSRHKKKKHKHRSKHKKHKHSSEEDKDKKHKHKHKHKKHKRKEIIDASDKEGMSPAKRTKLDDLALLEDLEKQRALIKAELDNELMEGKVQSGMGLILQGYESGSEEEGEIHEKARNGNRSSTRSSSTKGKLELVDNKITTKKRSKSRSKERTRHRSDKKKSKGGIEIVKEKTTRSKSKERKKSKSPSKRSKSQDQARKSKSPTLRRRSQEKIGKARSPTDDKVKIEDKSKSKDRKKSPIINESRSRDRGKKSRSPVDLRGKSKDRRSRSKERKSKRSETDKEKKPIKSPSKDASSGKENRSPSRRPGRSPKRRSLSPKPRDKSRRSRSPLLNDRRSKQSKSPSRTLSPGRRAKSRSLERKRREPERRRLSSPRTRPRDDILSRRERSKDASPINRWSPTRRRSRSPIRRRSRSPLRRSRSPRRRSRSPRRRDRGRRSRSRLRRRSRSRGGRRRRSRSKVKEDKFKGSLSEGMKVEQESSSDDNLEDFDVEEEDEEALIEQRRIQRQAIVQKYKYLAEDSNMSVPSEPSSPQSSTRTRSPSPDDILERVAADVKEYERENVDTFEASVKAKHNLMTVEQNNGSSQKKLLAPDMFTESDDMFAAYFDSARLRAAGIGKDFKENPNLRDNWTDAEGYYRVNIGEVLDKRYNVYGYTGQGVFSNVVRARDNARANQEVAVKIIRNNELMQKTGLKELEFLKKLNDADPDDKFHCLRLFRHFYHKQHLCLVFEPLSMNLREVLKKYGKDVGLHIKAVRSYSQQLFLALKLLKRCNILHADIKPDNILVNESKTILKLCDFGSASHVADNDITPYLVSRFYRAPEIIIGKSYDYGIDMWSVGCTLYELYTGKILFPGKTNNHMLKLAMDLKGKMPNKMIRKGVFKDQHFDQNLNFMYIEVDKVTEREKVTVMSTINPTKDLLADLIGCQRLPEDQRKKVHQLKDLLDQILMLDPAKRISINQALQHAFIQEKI
Chain of Myosin-IIIa (Homo sapiens) (Q8NEV4 whole entry): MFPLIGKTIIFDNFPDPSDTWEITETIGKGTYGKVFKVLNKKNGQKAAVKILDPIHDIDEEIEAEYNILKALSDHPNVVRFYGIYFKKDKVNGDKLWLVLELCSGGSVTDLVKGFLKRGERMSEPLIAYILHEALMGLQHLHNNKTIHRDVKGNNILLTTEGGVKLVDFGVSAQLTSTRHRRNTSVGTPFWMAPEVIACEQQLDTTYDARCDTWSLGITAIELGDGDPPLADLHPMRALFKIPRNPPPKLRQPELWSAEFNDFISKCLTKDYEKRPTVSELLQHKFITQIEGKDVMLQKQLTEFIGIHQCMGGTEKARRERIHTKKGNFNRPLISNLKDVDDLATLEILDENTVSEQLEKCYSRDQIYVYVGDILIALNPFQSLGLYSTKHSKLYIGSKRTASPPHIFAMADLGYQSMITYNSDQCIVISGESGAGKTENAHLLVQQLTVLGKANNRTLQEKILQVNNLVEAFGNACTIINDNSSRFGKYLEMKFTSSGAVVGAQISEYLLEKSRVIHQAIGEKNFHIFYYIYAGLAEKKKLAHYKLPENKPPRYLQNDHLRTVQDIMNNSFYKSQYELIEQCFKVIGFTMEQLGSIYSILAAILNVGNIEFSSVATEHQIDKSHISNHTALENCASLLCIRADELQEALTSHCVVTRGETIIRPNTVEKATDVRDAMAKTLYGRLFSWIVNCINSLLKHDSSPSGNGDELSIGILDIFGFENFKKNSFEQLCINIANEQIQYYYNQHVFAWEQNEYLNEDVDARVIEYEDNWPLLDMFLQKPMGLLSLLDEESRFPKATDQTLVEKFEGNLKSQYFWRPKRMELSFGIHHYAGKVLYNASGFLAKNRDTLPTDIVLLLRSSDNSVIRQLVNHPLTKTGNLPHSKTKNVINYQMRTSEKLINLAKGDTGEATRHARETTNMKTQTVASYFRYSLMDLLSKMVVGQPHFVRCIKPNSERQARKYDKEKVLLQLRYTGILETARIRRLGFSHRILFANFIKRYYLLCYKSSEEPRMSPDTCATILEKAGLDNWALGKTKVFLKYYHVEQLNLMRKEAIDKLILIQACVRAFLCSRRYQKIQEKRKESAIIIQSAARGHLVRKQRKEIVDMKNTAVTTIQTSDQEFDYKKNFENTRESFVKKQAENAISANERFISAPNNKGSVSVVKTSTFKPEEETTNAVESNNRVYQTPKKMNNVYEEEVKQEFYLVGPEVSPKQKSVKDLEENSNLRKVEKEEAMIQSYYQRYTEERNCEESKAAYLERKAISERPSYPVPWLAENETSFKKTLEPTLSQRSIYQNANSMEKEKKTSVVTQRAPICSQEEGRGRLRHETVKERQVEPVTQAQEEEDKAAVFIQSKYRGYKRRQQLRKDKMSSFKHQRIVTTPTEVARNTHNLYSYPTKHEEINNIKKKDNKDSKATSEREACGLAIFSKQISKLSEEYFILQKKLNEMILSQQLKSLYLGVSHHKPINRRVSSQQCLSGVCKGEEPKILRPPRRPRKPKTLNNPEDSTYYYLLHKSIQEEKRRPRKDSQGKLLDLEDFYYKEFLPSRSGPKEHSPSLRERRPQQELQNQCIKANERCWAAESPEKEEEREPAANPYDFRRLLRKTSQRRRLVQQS
Chain of Ribosomal protein S6 kinase alpha-3 (Homo sapiens) (P51812 whole entry): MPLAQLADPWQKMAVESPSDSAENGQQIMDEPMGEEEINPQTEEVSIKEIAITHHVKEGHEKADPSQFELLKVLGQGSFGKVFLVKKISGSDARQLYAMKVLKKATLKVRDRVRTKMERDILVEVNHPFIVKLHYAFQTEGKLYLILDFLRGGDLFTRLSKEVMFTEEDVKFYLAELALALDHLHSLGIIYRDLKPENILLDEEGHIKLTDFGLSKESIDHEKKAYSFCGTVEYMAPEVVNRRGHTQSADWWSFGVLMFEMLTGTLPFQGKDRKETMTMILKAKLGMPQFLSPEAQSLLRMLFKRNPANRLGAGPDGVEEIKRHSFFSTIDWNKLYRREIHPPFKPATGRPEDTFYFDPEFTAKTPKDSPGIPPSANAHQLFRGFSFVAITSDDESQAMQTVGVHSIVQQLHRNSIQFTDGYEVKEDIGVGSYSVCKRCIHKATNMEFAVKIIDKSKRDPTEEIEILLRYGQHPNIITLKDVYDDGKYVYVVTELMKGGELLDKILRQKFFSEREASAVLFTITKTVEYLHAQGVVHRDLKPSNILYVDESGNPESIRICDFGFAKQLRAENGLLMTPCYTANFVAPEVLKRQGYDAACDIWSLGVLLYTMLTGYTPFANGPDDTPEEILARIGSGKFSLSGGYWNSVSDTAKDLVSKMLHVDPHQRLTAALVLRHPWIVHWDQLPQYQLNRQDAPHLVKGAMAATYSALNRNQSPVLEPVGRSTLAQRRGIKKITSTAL
Chain of Tyrosine-protein kinase ABL1 (Homo sapiens), P00519 [F317I] (P00519 whole entry F317I): as the sequence (P00519 whole entry) above, with F317I counted along it

Structure (SMILES) | inhibition at 90 min, 10 µM [1] | residual activity [2] | residual activity [3] | residual activity [4] | residual activity [5] | residual activity [6] | residual activity [7] | residual activity [8] | residual activity [9] | residual activity [10] | residual activity [11] | residual activity [12] | residual activity [13] | inhibition [14] | residual activity [16] | residual activity [17] | residual activity [18] | residual activity [19] | residual activity [20] | residual activity [21] | other results
O=C(NS(=O)(=O)c1ccc(NCC2CCOCC2)c([N+](=O)[O-])c1)c1ccc(N2CCN(Cc3ccc(C(F)(F)F)cc3-c3ccc(Cl)cc3)CC2)cc1Oc1cnc2[nH]ccc2c1 [A-1210227] | 7.3% | 100% | 96% | 90% | 99% | 96% | 100% | 84% | 100% | 100% | 86% | 100% | 100% | 10% | 76% | 100% | 100% | 100% | 100% | 100% | % Inhibition of Control Specific Binding (Mean n=2) [15]: -7.6%; residual activity [22]: 98%; residual activity [23]: 100%; residual activity [24]: 76%; residual activity [25]: 100%; residual activity [26]: 87%; residual activity [27]: 97%; residual activity [28]: 73%; residual activity [29]: 99%; residual activity [30]: 85%; residual activity [31]: 73%; residual activity [32]: 100%; residual activity [33]: 94%; residual activity [34]: 78%; residual activity [35]: 100%; residual activity [36]: 100%; residual activity [37]: 77%
CO[C@H]1CC[C@H](CNc2ccc(S(=O)(=O)NC(=O)c3ccc(N4CCN(CC5=C(c6ccc(Cl)cc6)CC(C)(C)CC5)CC4)cc3Oc3cnc4[nH]ccc4c3)cc2[N+](=O)[O-])CC1 [A-1211212] | 63.2% | 73% | 85% | 98% | 96% | 82% | 100% | 100% | 99% | 78% | 71% | 100% | 89% | 12.5% | 65% | 88% | 100% | 100% | 100% | 100% | % Inhibition of Control Specific Binding [15]: 1.9%; residual activity [22]: 100%; residual activity [23]: 100%; residual activity [24]: 74%; residual activity [25]: 94%; residual activity [26]: 100%; residual activity [27]: 87%; residual activity [28]: 67%; residual activity [29]: 77%; residual activity [30]: 82%; residual activity [31]: 67%; residual activity [32]: 84%; residual activity [33]: 85%; residual activity [34]: 79%; residual activity [35]: 82%; residual activity [36]: 100%; residual activity [37]: 66%
